Experimental data: ChEMBL document CHEMBL4261515, “An insight into the therapeutic potential of quinazoline derivatives as anticancer agents” (2017)

System: MCF7
Experiment: Potency index, ratio of cisplatin IC50 to test compound IC50 for cytotoxicity against human MCF7 cells after 48 hrs by MTT assay
Format: functional

COc1ccc(/C=C2\N=C(c3ccco3)N(n3c(C)nc4c(Br)cc(Br)cc4c3=O)C2=O)cc1
Ratio IC50: 3
